# pEC50: −log10 of the molar value. Where two headings read alike, the source gives them in different places.
# Legend:
# [1] = Cytotoxicity (Tables 4, 6, 8)
# [2] = test system: HIV-1 IIIB (cell-free virus); assay: microbe, parasite or virus in culture; assay type: cell-based; conditions: for EC50 Cell-free HIV-1 (IIIB) / pEC50: Table 8; for EC50 Cell-free HIV-1 (IIIB) / pEC50 / IC50 Cell-Free Virus IIIB: 2 h incubation, wash, 48 h culture; for pEC50: read-out: EC50 Cell-free HIV-1 (IIIB); for IC50 Cell-Free Virus IIIB: Table 1
# [3] = test system: Multidrug resistant virus 7324-1; assay: Antiviral activity against multidrug resistant HIV-1 clinical isolate, p24 level (ELISA); assay type: cell-based; conditions: Table 5, MDR = 7324-1, 6 h incubation then 6 days
# [4] = test system: Cell-associated HIV-1, SupT1 (IIIB); assay: Single-round infection assay, cell-associated virus SupT1 (IIIB); assay type: cell-based; conditions: for IC50 Cell-Associated Virus SupT1 (IIIB): Table 1, 2 h incubation, wash, 48 h culture
# [5] = test system: HIV-1 BaL (cell-free virus); assay: Single-round infection assay, cell-free virus BaL; assay type: cell-based; conditions: for IC50 Cell-Free Virus BaL: Table 1, 2 h incubation, wash, 48 h culture
# [6] = test system: HIV-1 clinical isolate R5 = 92TH014; assay: Antiviral activity against HIV-1 clinical isolate R5, p24 level (ELISA); assay type: cell-based; conditions: Table 5, 6 h incubation then 6 days
# [7] = test system: HIV-1 clinical isolate R5 = 92TH014; assay: Antiviral activity against HIV-1 clinical isolate R5, RT endpoint; assay type: cell-based; conditions: Table 2, 6 h incubation then 6 days
# [8] = test system: Multidrug resistant virus 7324-1; assay: Antiviral activity against multidrug resistant HIV, RT endpoint; assay type: cell-based, HIV-1; conditions: Table 2; MDR = 7324-1; RT endpoint; 6 h incubation then 6 days
# CCRF-CEM cell line = assay type: cell-based, human
# Description: Cells were incubated with 10 μM of DMSO, FAM, KPH-1.5 and KPH-1.6 for 1 h and then imaged using a light microscope (ZEISS Axioplan 2) equipped with transmitted light microscopy with a differential-interference contrast method and an Achroplan 40× objective. […] The results further confirm the higher cellular uptake of KPH-1.6, a fatty acyl derivative of FLT, in comparison to KPH-1.5 and FAM alone. Similar results were also observed with fluorescein-substituted derivative of 3TC.
# H. ducreyi Strain HMC56 = assay: Antibacterial activity (MIC), strain HMC56; assay type: cell-based, Haemophilus ducreyi
# H. ducreyi Strain HMC 62 = assay: Antibacterial activity (MIC), strain HMC 62; assay type: cell-based, Haemophilus ducreyi
# H. ducreyi Strain HMC 64 = assay: Antibacterial activity (MIC), strain HMC 64; assay type: cell-based, Haemophilus ducreyi
compound,measurement,setting,value
"CCCCCCCCCCCCCC(=O)NCCCC[C@H](NC(=O)CCNC(=O)[C@H](CCC(=O)OC[C@H]1O[C@@H](n2cc(C)c(=O)[nH]c2=O)C[C@@H]1F)NC(=O)CCCCCCCCCCCCC)C(=O)O [KPH-92, FLT(myristoylglutamyl)-mysritoyllysine]",CC50,[1],> 100 µg/mL
"CCCCCCCCCCCCCC(=O)NCCCCC(NC(=O)CCNC(=O)C(CCC(=O)OC[C@H]1O[C@@H](n2cc(C)c(=O)[nH]c2=O)C[C@@H]1F)NC(C)=O)C(=O)O (stereo partly drawn) [KPH-91, FLT(Glutamyl)-myrsitoyllysine]",EC50 Cell-free HIV-1 (IIIB),[2],8.7 µg/mL
same,pEC50,[2],4.98
same,CC50,[1],> 100 µg/mL
"CCCCCCCCCCCCCC(=O)OCC(NC(C)=O)C(=O)NCCC(=O)NC(CCC(=O)OC[C@H]1O[C@@H](n2cc(C)c(=O)[nH]c2=O)C[C@@H]1N=[N+]=[N-])C(=O)NCC(=O)O (stereo partly drawn) [KPH-95, Myristoylserine-AZT(glutamyl)glycine]",EC50 Cell-free HIV-1 (IIIB),[2],54.5 µg/mL
same,pEC50,[2],4.20
same,CC50,[1],> 100 µg/mL
Sodium Cellulose Sulfate-Acetate-FLT (1.45%) [CS-Ac-FLT],IC50,[3],0.50 µg/mL
same,EC50 Cell-Free Virus IIIB,[2]; Table 4,2.3 µg/mL
same,EC50 Cell-Associated Virus SupT1-IIIB,[4]; Table 4,5.8 µg/mL
same,EC50 Cell-Free Virus BaL,[5]; Table 4,1.5 µg/mL
same,IC50,[6],2.67 µg/mL
"CCCCCCCCCCCCCC(=O)OC[C@H]1O[C@@H](n2cc(C)c(=O)[nH]c2=O)C[C@@H]1F [3′-fluoro-2′,3′-dideoxy-5′-O-(tetradecanoyl)thymidine]",IC50 Cell-Free Virus IIIB,[2],0.3 µg/mL
same,IC50 Cell-Associated Virus SupT1 (IIIB),[4],2.9 µg/mL
same,IC50,[7],0.003 µg/mL
same,IC50,[8],0.002 µg/mL
same,IC50 Cell-Free Virus BaL,[5],0.5 µg/mL
"Cc1ccc(C(=O)Nc2ccc(S(=O)(=O)O)c3cc(S(=O)(=O)O)cc(S(=O)(=O)O)c23)cc1NC(=O)c1cccc(NC(=O)Nc2cccc(C(=O)Nc3cc(C(=O)Nc4ccc(S(=O)(=O)O)c5cc(S(=O)(=O)O)cc(S(=O)(=O)O)c45)ccc3C)c2)c1 [Suramin, reference compound]",EC50,"[2]; Human immunodeficiency virus 1, IIIB, read-out: EC50 Cell-Free Virus IIIB",49.1 µg/mL
same,CC50,in vitro,> 100 µg/mL
same,EC50,"[5]; Human immunodeficiency virus 1, BAL, Table 6",1 µg/mL
"3′-fluoro-2′,3′-dideoxy-5′-O-(12-(N-5(6)carboxylfluoresceinaminododecanoyl)thymidine",IC50 Cell-Free Virus IIIB,[2],4.3 µg/mL
same,cell fluorescence by microscopy,CCRF-CEM cell line,showed fluorescence
"Nc1ccn([C@@H]2CS[C@H](CO)O2)c(=O)n1 [2′,3′-dideoxy-3′-thiacytidine, reference compound]",IC50,"[2]; Human immunodeficiency virus 1, IIIB, read-out: IC50 Cell-Free Virus IIIB",7.5 µg/mL
same,IC50,"[4]; Human immunodeficiency virus 1, IIIB, SUP-T1, read-out: IC50 Cell-Associated Virus SupT1 (IIIB)",18.4 µg/mL
same,CC50,[1],> 100 µg/mL
same,IC50,"[5]; Human immunodeficiency virus 1, BAL, read-out: IC50 Cell-Free Virus BaL",2.6 µg/mL
"Cc1cn([C@H]2C[C@H](F)[C@@H](COC(=O)CCCCCCCCCCCN=[N+]=[N-])O2)c(=O)[nH]c1=O [3′-fluoro-2′,3′-dideoxy-5′-O-(12-azidododecanoyl)thymidine]",IC50 Cell-Free Virus IIIB,[2],0.4 µg/mL
same,MIC (minimum inhibitory concentration),H. ducreyi Strain HMC56,500 µg/mL
same,MIC (minimum inhibitory concentration),H. ducreyi Strain HMC 62,125 µg/mL
same,IC50 Cell-Associated Virus SupT1 (IIIB),[4],5.9 µg/mL
same,IC50,[7],0.003 µg/mL
same,IC50,[8],0.003 µg/mL
same,MIC (minimum inhibitory concentration),H. ducreyi Strain HMC 64,125 µg/mL
same,IC50 Cell-Free Virus BaL,[5],0.2 µg/mL
"CCSCCCCCCCCCCCC(=O)OC[C@H]1O[C@@H](n2cc(C)c(=O)[nH]c2=O)C[C@@H]1F [3′-fluoro-2′,3′-dideoxy-5′-O-(13-thiapentadecanoyl)thymidine]",IC50 Cell-Free Virus IIIB,[2],0.5 µg/mL
same,MIC (minimum inhibitory concentration),H. ducreyi Strain HMC56,125 µg/mL
same,MIC (minimum inhibitory concentration),H. ducreyi Strain HMC 62,125 µg/mL
same,IC50 Cell-Associated Virus SupT1 (IIIB),[4],1.1 µg/mL
same,IC50,[7],0.002 µg/mL
same,IC50,[8],0.002 µg/mL
same,MIC (minimum inhibitory concentration),H. ducreyi Strain HMC 64,125 µg/mL
same,IC50 Cell-Free Virus BaL,[5],<0.1 µg/mL
